Target: T1, GII.17 Kawasaki 308 variant VLP (E12905) (Norovirus GII.17, UniProt A0A0S2ZZA3)
T1 construct: gene VP1
Settings: ligand as BSA conjugate (about 20 per BSA, multivalent), immobilized; VLP 2 ng/ul; HBS pH 7.4, 25 C; also ELISA (Figure 4A)

With `CC(=O)N[C@H]1[C@H](O[C@H]2[C@@H](O)[C@@H](CO)O[C@@H](O[C@H]3[C@H](O)[C@@H](O)C(O)O[C@@H]3CO)[C@@H]2O)O[C@H](CO)[C@@H](O)[C@@H]1O[C@@H]1O[C@H](CO)[C@H](O)[C@H](O)[C@H]1O[C@@H]1O[C@@H](C)[C@@H](O)[C@@H](O)[C@@H]1O` (stereo partly shown) [lacto-N-fucopentaose I] the “GII.17 variant / Kawasaki 308” value was 255 RU.
